Patent US5459160A, “Iridoid derivatives and the use thereof as a drug” (Tsumura & Co., priority 1990, dated 1995)
Where two headings read alike, the source gives them in different places.

How the values were obtained:
[1] = test system: hyperlipemia; experiment: Anti-hyperlipemia test in rats on high fat food (Experimental Example 1); format: in vivo, Male Wistar rats; details: peroral once a day, two weeks, control 100, Table 1
Source text: Male Wistar rats 6.5 weeks old were allowed to freely intake a high fat food (containing 1% of cholesterol, 0.5% of sodium cholate, 12% of beef tallow and 20% of standard chow) in the cource of two weeks, to thus cause an outbreak of hyperlipemia. The dose of the drug was started simultaneously with the application of the high fat food, and was perorally given once a day through a stomach tube until the end of the experiment. The drugs were all suspended in a cane sugar fatty acid ester and were administered. The oily compounds were adjusted in advance to 100 mg/m.iota. by diethyl ether. A suitable amount was collected at the time of the dose and after diethyl ether was evaporated and removed, it was suspended in a cane sugar fatty acid ester (1% ryoto sugar ester) and then given. After the final dose of the drug, the rats were fasted for about 18 hours, and the blood was sampled to measure the blood serum lipid. The blood serum lipid was measured by using a TBA-380 biochemical analyzer (a product of Toshiba Medical Co.,) unless a particular hindrance occurred.

[2] = test system: cholic acid and chenodeoxycholic acid synthetic activity in liver cells; experiment: Synthetic activity of bile acid (cholic acid and chenodeoxycholic acid) in incubated liver cells (Experimental Example 3); format: cell-based, male Wistar rats; details: Rattus norvegicus, Hepatocyte, 24 hours, 37° C., control 100; for activity at 1 µM: 10^-6 M; for activity at 0.1 µM: 10^-7 M; for activity at 0.01 µM: 10^-8 M
Procedure: Influences on Synthetic Activity of Bilic Acid in Incubated Liver Cell
The liver cells were separated from male Wistar rats 5.0-5.5 weeks old using a reflux method in accordance with the method of Nakamura et al (Toshikazu Nakamura "The Experimental Method for the Primary Cultured Hepatocytes", 1987). In this case, the separation of the cells was started at 9-10:00 a.m. The separated liver cells were floated in a Williams E medium inactivated by heat-treatment and containing 10% FBS, 20 mU/m.iota. insulin, […] dexamethasone, 100 IU/m.iota. peniciline and 100 μg/m.iota. streptomycin so that the cell density became 1×10^5 cells/cm^2 /0.2 m.iota.. The liver cells were planted in a cell density of 1×10^5 cells/cm^2 /0.2 m.iota. in a dish having a diameter of 60 mm. After incubation at 37° C. for 4 hours, a medium exchange was made and the medium was changed to 3 m.iota.. Next, [4-^14 C] cholesterol was added in an amount of 11.655 kBq per dish, and a 0.33% ethanol solution of each test drug was added. Control used only 0.33% ethanol. After incubation was carried out at 37° C. for 24 hours, the synthetic activity of cholic acid and chemodexycholic acid generated in the cells and the medium were measured.
Measurement of Cholic Acid and Chenodeoxycholic Acid Synthetic Activity
The measurement of cholic acid and chenodeoxycholic acid synthetic activity was carried out in accordance with the method of M. G. Pricen et al (Hans M. G. Pricen, Chrisstine M. G. HuJismans, Folkerr Kuipers, Roel J. Vonk and Herman Jan M. Kempen, J. Clin. Invest., 78: 1064-1071, 1986). Twenty-four hours later, the cells and the medium were collected from the incubated liver cells and the cells were pulverized by a ultrasonic pulverizer. Bile acid was separated and eluted by a column cartridge having an opposite phase system, i.e., "Sep-pak"® C18 (Waters Associates, Milford, Mass.), and the conjugation of conjugated bile acid was hydrolyzed using choloylglycine hydrolase. The extraction of bile acid was carried out using chloroform after the solution was rendered acidic by hydrochloric acid. The extract was dissolved in 100 μ.iota. of water:methanol (1:4, containing 40 μg/10 μ.iota. cholic acid and 100 μg/100 μ.iota. chenodeoxycholic acid). 80 μ.iota. of this solution was spotted onto an aluminum plate (MERCK, ART 5582) and was developed using a developing solution consisting of benzene/1,4-dioxane/acetic acid (20:10:2). After the TLC plate was exposed to an iodine gas stream and each spot of bile acid was confirmed, it was cut off and its radioactivity was measured by a liquid scintillation counter. To correct the proportion of elution of the Sep-pak and the hydroclysis and extraction of conjugated bile acid by choloylglycine hydrolase, 2 nCi of [^3 H(G)] taurocholic acid was added and 3H of the spot of cholic acid was measured after the supersonic pulverization and correction was thus carried out (TsuJita, Y., Kuroda, M., Shimada, Y., Tanzawa, K., Arai, M., Kenko, I., Tanaka, M., Tarumi, C., Watanabe, Y., and Fujii, Biochemical et Biophysics Acta. 877:50-60, 1986).
Non-radioactive cholic acid and chenodeoxycholic acid were added as a carrier, to clarify the position of the spot by the iodine gas stream when bile acid was developed, but for the β-muricholic acid, the position of the spot was indefinite even when the non-radioactive acids were added. Therefore, the portion estimated by the Rf value described in the reference was cut off and measured again.

[3] = test system: bile secretion; experiment: Cholagogic action, bile secretion (Experimental Example 5); format: in vivo, male Wistar rats; details: intraduodenal
Procedure: After male Wistar rats 7 weeks old were fasted for 24 hours, they were anesthetized by the interperitoneal administration of 1.25 g/kg (volume 2 m.iota./kg) of urethane. A polyethylene canula (SP-10, a product of Natsume Seisakusho) was inserted into a bile duct and after the bile was caused to flow out for 30 minutes, the bile was collected in the cource of 1 hour. Thereafter, each test drug was suspended or dissolved in a 1% aqueous Tween-80 solution, and was administered into the duodenum at a rate of 5 m.iota./kg. Furthermore, the bile was collected every hour in the course of five hours, and its weight was measured. Only a 1% Tween-80 solution was given as a control.
The results are tabulated in Tables 6, 7, 8, 9 and 10, wherein the bile secretion amount every hour was represented by a percentage with the bile secretion amount (mg) one hour before the dose of the test drug being 100.

[4] = Acute toxicity test; details: mouse, in vivo, ip; male S.P.P. mice, abdominally administered; Table 11
Procedure: The acute toxicity test was carried out by abdominally administering each test drug to male S.P.P. mice and determining an LD50 value.

[5] = test system: cholesterol synthesis in liver slices; experiment: Cholesterol synthesis from [1-14C] acetic acid in liver slices (Experimental Example 2); format: cell-based, male Wistar rats; details: drug final concentration 0.1-1.0 mM, 37° C., 120 minutes; control 100; Table 2
Procedure: Liver slices (0.5 mm) were prepared from male Wistar rats 5 weeks old acclimated for 10 days in a bright/dark inversion raising chamber (bright period: 8:00 p.m.-8:00 a.m.). […] Incubation was carried out at 37° C. for 120 minutes in 95% oxygen and 5% carbon dioxide. The reaction was stopped by adding 1 m.iota. of 15% potassium hydroxide/ethanol, and saponification was carried out at 80° C. for 2 hours. The sterol fraction was extracted by petroleum ether and was evaporated to driness. Thereafter, 1 m.iota. of acetone/ethanol (1:1) and 1 m.iota. of 0.5% digitonine were added, and the mixture was left standing for a night at room temperature. The precipitate was collected by centrifugal separation and was washed with 2 m.iota. of acetone/ether (1:1). The precipitate was further centrifuged. After the supernatant was discarded, the precipitate was dissolved in methanol and its radioactivity was measured.

[6] = Table 4, read-out: Relative amount of synthesized chenodeoxycholic acid
[7] = Table 4, read-out: Relative amount of synthesized cholic acid
[8] = Table 3, read-out: Relative amount of synthesized chenodeoxycholic acid
[9] = Table 3, read-out: Relative amount of synthesized cholic acid
[10] = 0-1 hour after dose, control 82.9, Table 6
[11] = 1-2 hour after dose, control 74.1, Table 6
[12] = 2-3 hour after dose, control 66.1, Table 6
[13] = 3-4 hour after dose, control 59.8, Table 6
[14] = 4-5 hour after dose, control 53.3, Table 6

COC(=O)C1=COC(O)[C@@H]2[C@H](C)CC[C@H]12 (stereo partly drawn) [Definite Example 31, methyl (4aS, 7R, 7aR)-1,4a, 5,6,7,7a-hexahydro-1-hydroxy-7-methylcyclopenta[c]pyran-4-carboxylate]
Blood serum cholesterol (%) ([1]; 10 mg/kg): 82.0% | Blood serum triglyceride (%) ([1]; 10 mg/kg): 79.0% | Blood serum cholesterol (%) ([1]; 30 mg/kg): 96.1% | Blood serum triglyceride (%) ([1]; 30 mg/kg): 76.5% | activity at 1 µM [2, 6]: 113% | activity at 1 µM [2, 7]: 105% | Bile secretion amount, percentage of the hour before dose ([3]; 0-1 hour after dose, control 84.1, Table 8): 126.7% | Bile secretion amount, percentage of the hour before dose ([3]; 1-2 hour after dose, control 72.5, Table 8): 88.0% | Bile secretion amount, percentage of the hour before dose ([3]; 2-3 hour after dose, control 63.8, Table 8): 73.0% | Bile secretion amount, percentage of the hour before dose ([3]; 3-4 hour after dose, control 56.7, Table 8): 63.7% | Bile secretion amount, percentage of the hour before dose ([3]; 4-5 hour after dose, control 51.2, Table 8): 55.1% | LD50 [4]: 814 mg/kg

COC(=O)C1=CO[C@@H](OC(C)=O)[C@@H]2C(C)=CC[C@H]12 [Definite Example 38, methyl (1S, 4aS, 7aS)-1-acetoxy-1,4a, 5,7a-tetrahydro-7-methylcyclopenta[c]pyran-4-carboxylate]
Relative amount of synthesized cholesterol (%) [5]: 72.8%

CCOC(C)O[C@@H]1OC=C(C(=O)OC)[C@H]2CC=C(C=O)[C@@H]12 (stereo partly drawn) [Definite Example 22, methyl (1S, 4aS, 7aS)-1-[1-(ethoxy)ethoxy]-7-formyl-1,4a, 5,7a-tetrahydrocyclopenta[c]pyran-4-carboxylate]
Relative amount of synthesized cholesterol (%) [5]: 86.2%

COC(=O)C1=COC(O)[C@@H]2C(C=O)=CC[C@H]12 (stereo partly drawn) [Definite Example 23, methyl (4aS, 7aS)-7-formyl-1,4a, 5,7a-tetrahydro-1-hydroxycyclopenta[c]pyran-4-carboxylate]
Relative amount of synthesized cholesterol (%) [5]: 80.1%

C[C@@H](CO)[C@H]1CC[C@H](C)[C@H]1CO [Definite Example 45, (2R)-2-[(1R, 2R, 3S)-2-(hydroxymethyl)-3-methylcyclopent-1-yl]propan-1-ol]
activity at 1 µM [2, 8]: 152% | activity at 1 µM [2, 9]: 146% | activity at 0.1 µM [2, 8]: 119% | activity at 0.1 µM [2, 9]: 121% | activity at 0.01 µM [2, 8]: 112% | activity at 0.01 µM [2, 9]: 108% | Bile secretion amount, percentage of the hour before dose [3, 10]: 163.8% | Bile secretion amount, percentage of the hour before dose ([3]; 0-1 hour after dose, control 87.7, Table 7): 163.4% | Bile secretion amount, percentage of the hour before dose [3, 11]: 99.7% | Bile secretion amount, percentage of the hour before dose ([3]; 1-2 hour after dose, control 75.3, Table 7): 99.6% | Bile secretion amount, percentage of the hour before dose ([3]; 2-3 hour after dose, control 65.0, Table 7): 75.2% | Bile secretion amount, percentage of the hour before dose [3, 12]: 78.6% | Bile secretion amount, percentage of the hour before dose ([3]; 3-4 hour after dose, control 58.7, Table 7): 61.7% | Bile secretion amount, percentage of the hour before dose [3, 13]: 67.8% | Bile secretion amount, percentage of the hour before dose ([3]; 4-5 hour after dose, control 51.8, Table 7): 53.3% | Bile secretion amount, percentage of the hour before dose [3, 14]: 59.1% | LD50 [4]: 406 mg/kg

C[C@H]1COC(O)[C@H]2[C@@H]1CC[C@@H]2C (stereo partly drawn) [Definite Example 44, (4R, 4aR, 7S, 7aR)-1,3,4,4a, 5,6,7,7a-octahydro-4,7-dimethylcyclopenta[c]pyran-1-ol]
activity at 1 µM [2, 6]: 155% | activity at 1 µM [2, 7]: 130% | Bile secretion amount, percentage of the hour before dose [3, 10]: 137.2% | Bile secretion amount, percentage of the hour before dose [3, 11]: 95.0% | Bile secretion amount, percentage of the hour before dose [3, 12]: 78.4% | Bile secretion amount, percentage of the hour before dose [3, 13]: 66.5% | Bile secretion amount, percentage of the hour before dose [3, 14]: 59.8% | LD50 [4]: 389 mg/kg

COC(=O)C1=COC(OC(=O)c2ccccc2)C2C(C)=CCC12 [Definite Example 36, methyl (2S, 4aS, 7aS)-1-benzoyloxy-1,4a, 5,7a-tetrahydro-7-methylcyclopenta[c]pyran-4-carboxylate]
Relative amount of synthesized cholesterol (%) [5]: 72.4%

CC1=COC(O)[C@H]2[C@@H]1CC[C@@H]2C (stereo partly drawn) [Definite Example 43, (4aS, 7S, 7aR)-1,4a, 5,6,7,7a-hexahydro-4,7-dimethylcyclopenta[c]pyran-1-ol]
activity at 1 µM [2, 6]: 105% | activity at 1 µM [2, 7]: 109% | Bile secretion amount, percentage of the hour before dose [3, 10]: 156.2% | Bile secretion amount, percentage of the hour before dose [3, 11]: 95.2% | Bile secretion amount, percentage of the hour before dose [3, 12]: 76.1% | Bile secretion amount, percentage of the hour before dose [3, 13]: 65.7% | Bile secretion amount, percentage of the hour before dose [3, 14]: 58.3% | LD50 [4]: 231 mg/kg
